One test concerns lysosomes of microglia. The test is described as follows: Lysosomal swelling and damage in microglia after Aβ phagocytosis (LAMP-1, cathepsin B, LysoTracker). It counts as cell-based, mouse. As for the experimental part:
Neuronal, microglial, mixed neuronal/microglial and primary mixed glial cultures were fixed with 4% paraformaldehyde for 30 min and incubations with respective primary and secondary antibodies were performed for 2 h at room temperature in PBS containing 1% bovine serum albumin, 5% fetal calf serum and 0.05% saponin Cell nuclei were stained with Hoechst 33258 (1:1000).
For evaluation of lysosomal damage, cells were incubated with LysoTracker green (1:2000) for 30 min and stimulated as described. Lysosomal damage was defined as loss of LysoTracker fluorescence as assessed by flow cytometry. All flow cytometry experiments were performed on an LSRII cytometer (BD Biosciences), data were acquired by DIVA software (BD Biosciences) and analyzed with FlowJo software (Tree Star Inc., Ashland, Oreg.).

The next test relates to mice. The test is described as follows: Stereotaxic brain microinjection, microglial recruitment (F4/80). It counts as in vivo, mouse. As to conditions: wild type mice, 1 μl of 1 mg/ml into striatum, 48 h. The method, then:
Injections were performed as described^27. Briefly, six week old mice (n=4 in each group) were anesthetized with ketamine (100 mg/kg i.p.; Webster) and xylazine (10 mg/kg i.p.; Webster), placed on a homoeothermic heating blanket (Harvard Apparatus) and immobilized in a stereotaxic frame (Stoelting). A linear skin incision was made under sterile conditions, and a small hole was created in the skull using a dental drill 1 mm anterior and 2 mm lateral to bregma over both hemispheres. 1 μl Aβ in sterile pyrogen-free saline (1 mg/ml) was inoculated on the left side, and the same amount of revAβ was inoculated on the right side, using separate Hamilton syringes. Mice were allowed to fully recover on a heating blanket. After 48 hours, the mice were anesthetized with ketamine/xylazine and transcardially perfused with 4% paraformaldehyde in PBS. Brains were removed, placed in 4% PFA overnight at 4° C., and then transferred to PBS and stored at 4° C. until sectioning. Coronal 60 μm sections were taken using a vibratome (Leica). […] To quantify the number of microglia recruited to sites of microinjection, serial sections from each site of injection were visualized by fluorescence microscopy (Nikon Eclipse E400) and digitally photographed. […] Fluorescence intensity of microglia immunoreactive for F4/80 at each injection site was quantified using ImageJ (NIH).

Entries after “also recorded” stand apart in the source; their conditions may differ.

As to Aβ 1-42 peptide, in the test with lysosomes of microglia (microglia, 4 h after Aβ stimulation), the “cells with enlarged lysosomes not staining for cathepsin B” value was 15-20%. Also, in the test on lysosomes of microglia (microglia, Aβ-FITC), the “diameter of Aβ-containing lysosomes, largest observed” value is “up to 11 μm” and the “diameter of Aβ-containing lysosomes, mean” value was 4.1±0.4 μm. In addition, the “cells with extensive enlargement and swelling of Aβ-containing lysosomes” value in the test on lysosomes of microglia (microglia, of all cells) is recorded as roughly 15%. In addition, the “cells negative for LysoTracker fluorescence” value in the test on lysosomes of microglia (wild type microglia, Aβ 1, 3 and 10 μM, flow cytometry) is “increased dose-dependently; also recorded: induced loss of LysoTracker Green fluorescence”. The “microglia around the injection site (F4/80)” value in the test with mice was “strong recruitment and chemotaxis of microglia”.

The record behind these values is patent publication US20100150938A1, “METHODS AND COMPOSITIONS FOR REDUCING INFLAMMATION AND TREATING INFLAMMATORY DISORDERS” (UNIVERSITY OF MASSACHUSETTS, priority 2008, published 2010).
